In patent US20040072738A1, “Analogues of thiocoraline and be-22179” (priority 2000, published 2004):
pIC50: −log10 of the molar value. Values after ≈ are worked out from the molar mass of the structure shown. Bridge positions count the residues as written; N and C are the ends. Square brackets hold non-standard residues; d marks the D form. Peptide text beside a SMILES is read from it. I, II: the chains in the order shown. * marks the point of attachment. Quinaldoyl(3-OH,6-OMe) = COc1ccc2nc(C(=O)*)c(O)cc2c1; Quinoxaline2carbonyl = O=C(c1cnc2ccccc2n1)*; Quinaldoyl(3-OH) = O=C(c1nc2ccccc2cc1O)*; Fmoc = O=C(OCC1c2ccccc2-c2ccccc21)*; Quinaldoyl = O=C(c1ccc2ccccc2n1)*; NMeC = CN[C@@H](CS)C(=O)O; Cbz = O=C(OCc1ccccc1)*; NMeDha = C=C(NC)C(=O)O

How the values were obtained:
L1210 cell line = experiment: cytotoxic activity in the L1210 assays; conditions: L1210 assays
supercoiled ΦX174 DNA = experiment: unwinding and rewinding of negatively supercoiled DNA, agarose gel electrophoresis; assay type: biochemical
Source text: Confirmation that thiocoraline and BE-22179 bind to DNA with bisintercalation was derived from their ability to induce the unwinding of negatively supercoiled DNA. This was established by their ability to gradually decrease the agarose gel electrophoresis mobility of supercoiled ΦX174 DNA (unwinding) at increasing concentrations followed by a return to normal mobility (rewinding) at even higher concentrations. Under the conditions employed, echinomycin unwound ΦX174 DNA at a 0.044 agent/base pair ratio (FIG. 11 and FIG. 12). Thiocoraline completely unwound ΦX174 DNA at a higher 0.11 agent/base pair ratio, whereas BE-22179 required even higher concentrations producing the unwinding at an agent/base pair ratio of 1.1. […] Thus, the distinctions in 1 and 2 and echinomycin detected here appear to be related to the nature of the cyclic depsipeptide and not the structure of the chromophore.
FIG. 8 is a table of comparative DNA binding properties. ^aCalf thymus DNA, KB=apparent binding constant determined by fluorescence quenching. The value in paren-theses is the agent/base pair ratio at saturated high-affinity binding and may be considered a measure of the selectivity of binding. ^bAgent/base pair ratio required to unwind negatively supercoiled FX174 DNA (form I to form II gel mobility, 0.9% agarose gel). ^cAgent/base pair ratio required to induce complete rewinding or positive super-coiling of FX174 DNA (form II to form I gel mobility, 0.9% agarose gel). ^dBinding constant established by footprinting at a 5′-CCGC site (FIG. 9).
(A) Lane 1, untreated supercoiled FX174 DNA, 95% form 1 and 5% form II; lanes 2-8, thiocoraline-treated FX174 DNA; lanes 9-14, echinomycin-treated FX174 DNA. The [agent]-to-[base pair] ratios were 0.022 (lanes 2 and 9), 0.033 (lanes 3 and 10), 0.044 (lanes 4 and 11), 0.066 (lanes 5 and 12), 0.11 (lanes 6 and 13), 0.22 (lanes 7 and 14), and 0.44 (lane 8). (B) Lane 1, untreated supercoiled FX174 DNA, lanes 2-12, BE-22179-treated FX174 DNA. The [agent]-to-[base pair] ratios were 0.022, (lane 2), 0.033 (lane 3), 0.044 (lane 4), 0.066 (lane 5), 0.11 (lane 6), 0.22 (lane 7), and 0.33 (lane 8), 0.44 (lane 9), 0.66 (lane 10), 1.1 (lane 11), and 2.2 (lane 12). (C) Lane 1, untreated supercoiled FX174 DNA, 95% form 1 and 5% form II; lanes 2-8, thiocoraline analogue (27)-treated FX174 DNA. The [agent]-to-[base pair] ratios were 0.022 (lane 2), 0.033 (lane 3), 0.044 (lane 4), 0.066 (lane 5), 0.11 (lane 6), 0.22 (lane 7), and 0.44 (lane 8).

[1] = biological target: HIV-1 reverse transcriptase (Human immunodeficiency virus type 1 group M subtype B, UniProt P03366); experiment: inhibition of HIV-1 reverse transcriptase; assay type: biochemical
[2] = solubility in aqueous buffer; assay type: physicochemical
[3] = cytotoxic activity in the L1210 assays

COc1ccc2nc(C(=O)N[C@@H]3CSC(=O)[C@H](CSC)N(C)C(=O)[C@@H]4CSSC[C@@H](C(=O)N(C)[C@@H](CSC)C(=O)SC[C@@H](NC(=O)c5nc6ccc(OC)cc6cc5O)C(=O)NCC(=O)N4C)N(C)C(=O)CNC3=O)c(O)cc2c1 [Compound 28, [N-(3-Hydroxy-6-methoxy-2-quinoline carboxyl)-D-Cys-Gly-NMe-L--CyS-NMe-L--Cys(Me)]2 (Cysteine Thiol) Dilactone] (I: {Quinaldoyl(3-OH,6-OMe)}-[dC]G[NMeC][NMeC](Me) / II: {Quinaldoyl(3-OH,6-OMe)}-[dC]G[NMeC][NMeC](Me); thioester I:1-II:C, I:C-II:1; disulfide I:3-II:3)
cytotoxic activity (in words) (L1210 cell line): potent activity

CS[C@H]1SC[C@H]2C(=O)N(C)[C@@H](C(C)C)C(=O)OC[C@@H](NC(=O)c3cnc4ccccc4n3)C(=O)N[C@@H](C)C(=O)N(C)[C@@H]1C(=O)N(C)[C@@H](C(C)C)C(=O)OC[C@@H](NC(=O)c1cnc3ccccc3n1)C(=O)N[C@@H](C)C(=O)N2C [echinomycin, reference compound]
agent/base pair ratio required to unwind supercoiled DNA (supercoiled ΦX174 DNA; form I to form II gel mobility): 0.044 agent/base pair ratio | agent/base pair ratio for complete rewinding of supercoiled DNA (supercoiled ΦX174 DNA; form II to form I gel mobility): 0.22 agent/base pair ratio | inhibition of HIV-1 reverse transcriptase (in words) [1]: weak inhibitor | solubility (in words) [2]: low solubility

CSC[C@H]1C(=O)SC[C@@H](NC(=O)OCC2c3ccccc3-c3ccccc32)C(=O)NCC(=O)N(C)[C@H]2CSSC[C@@H](C(=O)N1C)N(C)C(=O)CNC(=O)[C@H](NC(=O)OCC1c3ccccc3-c3ccccc31)CSC(=O)[C@H](CSC)N(C)C2=O [Compound 32] (I: Fmoc-[dC]G[NMeC][NMeC](Me) / II: Fmoc-[dC]G[NMeC][NMeC](Me); thioester I:1-II:C, I:C-II:1; disulfide I:3-II:3)
cytotoxic activity (in words) (L1210 cell line): inactive

CSC[C@H]1C(=O)SC[C@@H](NC(=O)OCc2ccccc2)C(=O)NCC(=O)N(C)[C@H]2CSSC[C@@H](C(=O)N1C)N(C)C(=O)CNC(=O)[C@H](NC(=O)OCc1ccccc1)CSC(=O)[C@H](CSC)N(C)C2=O [Compound 23, [N-Cbz-D-Cys-Gly-NMe-L--Cys-NMe-L--Cys(Me)]2 (Cysteine Thiol) Dilactone] (I: Cbz-[dC]G[NMeC][NMeC](Me) / II: Cbz-[dC]G[NMeC][NMeC](Me); thioester I:1-II:C, I:C-II:1; disulfide I:3-II:3)
cytotoxic activity (in words) (L1210 cell line): inactive

CSC[C@H]1C(=O)SC[C@@H](NC(=O)c2cnc3ccccc3n2)C(=O)NCC(=O)N(C)[C@H]2CSSC[C@@H](C(=O)N1C)N(C)C(=O)CNC(=O)[C@H](NC(=O)c1cnc3ccccc3n1)CSC(=O)[C@H](CSC)N(C)C2=O [Compound 27, [N-(2-Quinoxaline carboxyl)-D-Cys-Gly-NMe-L--Cys-NMe-L--CYS(Me)]2 (Cysteine Thiol) Dilactone] (I: Quinoxaline2carbonyl-[dC]G[NMeC][NMeC](Me) / II: Quinoxaline2carbonyl-[dC]G[NMeC][NMeC](Me); thioester I:1-II:C, I:C-II:1; disulfide I:3-II:3)
cytotoxic activity (in words) (L1210 cell line): less potent cytotoxic activity

C=C1C(=O)SC[C@@H](NC(=O)c2nc3ccccc3cc2O)C(=O)NCC(=O)N(C)[C@H]2CSSC[C@@H](C(=O)N1C)N(C)C(=O)CNC(=O)[C@H](NC(=O)c1nc3ccccc3cc1O)CSC(=O)C(=C)N(C)C2=O [BE-22179] (I: {Quinaldoyl(3-OH)}-[dC]G[NMeC][NMeDha] / II: {Quinaldoyl(3-OH)}-[dC]G[NMeC][NMeDha]; thioester I:1-II:C, I:C-II:1; disulfide I:3-II:3)
solubility ([2]; Tris-HCl pH 7.4, 75 mM NaCl, read-out: agent concentrations where the compounds are soluble): 1 to 10 µM (≈ 1.06 to 10.6 µg/mL) | pIC50 [3]: 9.40

CSC[C@H]1C(=O)SC[C@@H](NC(=O)c2ccc3ccccc3n2)C(=O)NCC(=O)N(C)[C@H]2CSSC[C@@H](C(=O)N1C)N(C)C(=O)CNC(=O)[C@H](NC(=O)c1ccc3ccccc3n1)CSC(=O)[C@H](CSC)N(C)C2=O [Compound 26, [N-(2-Quinoline Carboxyl)-D-Cys-Gly-NMe-L--Cys-NMe-L--Cys(Me)]2 (Cysteine Thiol) Dilactone] (I: Quinaldoyl-[dC]G[NMeC][NMeC](Me) / II: Quinaldoyl-[dC]G[NMeC][NMeC](Me); thioester I:1-II:C, I:C-II:1; disulfide I:3-II:3)
cytotoxic activity (in words) (L1210 cell line): less potent cytotoxic activity
